The text below walks through data of patent US7205304B2, “Sulfonyl-Derivatives as novel inhibitors of histone deacetylase” (Janssen Pharmaceutica N.V., priority 2002, dated 2007).

In data set [1] the test system is A2780 ovarian carcinoma cells. The data set is described as follows: Antiproliferative activity on A2780 cells (MTT). The format is cell-based, human. Particulars: Homo sapiens, four days of incubation, read-out: Cellular activity pIC50 (converted). In a few lines: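 A2780 ovarian carcinoma cells were seeded at 1500 cells/well and exposed to compound for four days, with DMSO ≤0.1%. Viability was measured by MTT (2 h, 37° C) and expressed as a percentage of untreated controls after blank subtraction. Initial single-point testing was at 10^−6 M, then full curves gave pIC50.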

For data set [2], the target named is histone deacetylase (HeLa nuclear extracts). The data set is described as follows: In vitro assay for inhibition of histone deacetylase. The format is biochemical. Particulars: [3H]acetylated histone H4 peptide substrate.
Assay in data set [3]: not given
The source holds these as a separate data set.

Data set [4] can be described thus: Kinetic solubility in aqueous media (nephelometry). The format is physicochemical. As to conditions: phosphate citrate buffer, pH 7.4, aqueous buffer, kinetic from dmso stock, phosphate citrate buffer pH 7.4, turbidity of three dilution steps; read-out: Solubility Score. The procedure, abridged:
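DMSO stock (5 mM) diluted in three consecutive steps into phosphate citrate buffer pH 7.4, in triplicate; turbidity of each dilution read by nephelometry immediately after the last step. Compounds ranked into 3 classes: score 3 if first dilution clear, 2 if first unclear but second clear.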

The test system of data set [5] is A 2780 ovarium carcinoma cells. The data set is described as follows: A2780 mouse xenograft model. It counts as in vivo. As to conditions: orally 10, 20 and 40 mpk once daily, day 4 to day 32; two independent studies; maximal inhibition once at 20 mpk, once at 40 mpk. How it is done: Immunodeficient mice were injected subcutaneously with A 2780 ovarium carcinoma cells (10^7cells/200 μl/mouse). Subsequently they were orally treated with 10, 20 and 40 mpk of compound once daily between day 4 and day 32. The compound was dissolved in 0.9% NaCl, 20% β-cyclodextrine. On day 32 tumours were harvested and individual tumour weight of each mouse was determined. Each experiment included 10 mice.

≈ marks a conversion by molar mass, not a printed value. Like-named read-outs stand apart in the source and are kept apart here.

`CCCO` [propanol]: for the setting “5 μM compound, microsomes 1 mg/ml, NADPH-generating system”, the “% metabolism of the compound after 15 min of incubation” value is 25%.

Broadly, the melting point is the temperature of the solid-liquid transition. `CN(C)C(=O)c1ccc(N2CCN(S(=O)(=O)c3ccc4ccccc4c3)CC2)nn1` [Compound 113]: the IC50 in data set [1] (A2780, 96 h) was more than 10 µM. The “Enzyme activity pIC50” value in data set [2] is listed as less than 5. For the same compound, in data set [3], the melting point came to 200 °C.

In general, solubility refers to the concentration that dissolves in the medium under given conditions. In the case of `O=C(NO)c1cnc(N2CCN(S(=O)(=O)c3ccc4ccccc4c3)C(CO)C2)nc1` (stereo not shown) [Compound 121], in data set [1] (A2780, 96 h), the IC50 is 2.77 µM. In data set [2], the “Enzyme activity pIC50” value was found to be 6.833. The compound also had a melting point in data set [3] of 220 °C. Further, the solubility in data set [4] was more than 454 µM.

In the case of `CC(=O)Nc1ccc(N2CCN(S(=O)(=O)c3ccc4ccccc4c3)CC2)cc1` [Compound 3], the IC50 in data set [1] (A2780, 96 h) is more than 10 µM. Further, in data set [2], the “Enzyme activity pIC50” value was less than 5. The compound further came in with a melting point in data set [3] of 200 °C. Further, the solubility in data set [4] was less than 75.8 µM.

In the case of `CC(=O)SCC(=O)c1ccc(N2CCN(S(=O)(=O)c3ccc4ccccc4c3)CC2)cc1` [Compound 10], in data set [1] (A2780, 96 h), the IC50 is more than 10 µM. Further, the “Enzyme activity pIC50” value in data set [2] is listed as 6.7. Also, the melting point in data set [3] turned out to be 179 °C. Moreover, the solubility in data set [4] is less than 75.8 µM.

Consider `CN(C)CC1CN(c2ncc(C(=O)NO)cn2)CCN1S(=O)(=O)c1ccc2ccccc2c1` (stereo not shown) [Compound 123], for which, in data set [1] (A2780, 96 h), the IC50 is 2.58 µM. The “Enzyme activity pIC50” value in data set [2] amounted to 6.787. In data set [3], this compound yielded a melting point of 114 °C. Further, the solubility in data set [4] is more than 454 µM.

In data set [3], `O=C(NO)c1cnc(N2CCN(S(=O)(=O)c3ccc(-c4cccc(CCN5CCCC5)c4)cc3)CC2)nc1` [Co. No. 127] displayed a melting point of 243 °C.

Turning to `O=C(NO)c1cnc(N2CCN(S(=O)(=O)c3ccc4ccccc4c3)C(C(=O)NO)C2)nc1` (stereo not shown) [Compound 122], in data set [1] (A2780, 96 h), the IC50 was more than 10 µM. The “Enzyme activity pIC50” value in data set [2] was found to be 7.06. For the same compound, the melting point in data set [3] is 166 °C.

For `Cn1cnc(C(=O)Nc2ccc(N3CCN(S(=O)(=O)c4ccc5ccccc5c4)CC3)cc2)c1` [Compound 5], in data set [1] (A2780, 96 h), the IC50 is more than 10 µM. The “Enzyme activity pIC50” value in data set [2] is listed as less than 5. In data set [3], the melting point came out at 252 °C.

Consider `O=C(NO)c1cnc(N2CCN(S(=O)(=O)c3ccc(-c4ccccc4OCCN4CCCC4)cc3)CC2)nc1` (hydrate or solvate) [Co. No. 125], for which the melting point in data set [3] was 146.9 °C.

Regarding `O=C(Nc1ccc(N2CCN(S(=O)(=O)c3ccc4ccccc4c3)CC2)cc1)/C(Cc1ccccc1)=N/O` [Compound 9], the IC50 in data set [1] (A2780, 96 h) is 3.88 µM. For the same compound, in data set [2], the “Enzyme activity pIC50” value was less than 5. In data set [3], the melting point was found to be 226 °C.

As for `NC(=O)C1CN(c2ncc(C(=O)NO)cn2)CCN1S(=O)(=O)c1ccc2ccccc2c1` (stereo not shown) [Compound 118], the IC50 in data set [1] (A2780, 96 h) was 5.3 µM. In addition, the “Enzyme activity pIC50” value in data set [2] was 6.741. Moreover, the melting point in data set [3] was found to be 210 °C. Besides, the solubility in data set [4] was more than 454 µM.

On to `COc1cc(N)c(Cl)cc1C(=O)NC1CCN(CCCOc2ccc(F)cc2)CC1OC` (stereo not shown) [Cisapride], for which the “% metabolism of the compound after 15 min of incubation” value (human, 15 min, 5 μM) is on record as 45%.

In the case of `CN(C)c1nc(N2CCN(S(=O)(=O)c3ccc4ccccc4c3)CC2)ncc1C(=O)NO` [Compound 115], in data set [1] (A2780, 96 h), the IC50 was 2.02 µM. In addition, the “Enzyme activity pIC50” value in data set [2] is less than 5. The compound also registered a melting point in data set [3] of 135 °C.

Take `O=C(NO)Nc1ccc(N2CCN(S(=O)(=O)c3ccc4ccccc4c3)CC2)cc1` [Compound 4]: in data set [1] (A2780, 96 h), the IC50 was more than 10 µM. Also, the “Enzyme activity pIC50” value in data set [2] is less than 5. For the same compound, in data set [3], the melting point turned out to be 210 °C. Besides, in data set [4], the solubility is 75.8 to 454 µM (≈ 32.3 to 194 µg/mL).

As for `O=C(NO)c1cnc(N2CCN(S(=O)(=O)c3ccc4ccccc4c3)CC2)cn1` [Compound 116], the IC50 in data set [1] (A2780, 96 h) is 0.861 µM. The “Enzyme activity pIC50” value in data set [2] is 7.159. The melting point in data set [3] worked out at 249 °C. In addition, the solubility in data set [4] is less than 75.8 µM.

`CCOc1nc(N2CCN(S(=O)(=O)c3ccc4ccccc4c3)CC2)ncc1C(=O)NO` [Compound 12]: in data set [1] (A2780, 96 h), the IC50 was 8.2 µM. Moreover, the “Enzyme activity pIC50” value in data set [2] is on record as less than 5. In data set [3], the melting point stood at 197 °C.

Take `O=C(NO)c1ccc(N2CCN(S(=O)(=O)c3ccc4ccccc4c3)CC2)nn1` [Compound 120]: in data set [1] (A2780, 96 h), the IC50 was 1.01 µM. The “Enzyme activity pIC50” value in data set [2] is listed as 6.491. The compound further displayed a melting point in data set [3] of more than 260 °C. Further, the solubility in data set [4] was less than 75.8 µM.

For the compound `O=C(NO)c1cnc(N2CCN(S(=O)(=O)c3ccc4ccccc4c3)CC2)nc1NO` [Compound 119], the IC50 in data set [1] (A2780, 96 h) was more than 10 µM. The “Enzyme activity pIC50” value in data set [2] is on record as 5.215. The melting point in data set [3] was 225 °C.

Consider `CN(C)Cc1ccccc1-c1ccc(S(=O)(=O)N2CCN(c3ncc(C(=O)NO)cn3)CC2)cc1` [Compound 126], for which, in data set [1] (A2780, 96 h), the IC50 was 0.103 µM. Besides, in data set [2], the “Enzyme activity pIC50” value is given as 8.456. The melting point in data set [3] came to 190.7 °C. In data set [4], the solubility is less than 75.8 µM.

Turning to `O=C(NO)c1cnc(N2CCN(S(=O)(=O)c3ccc(-c4cccc(CCO)c4)cc3)CC2)nc1` [Compound 129], the IC50 in data set [1] (A2780, 96 h) was 0.206 µM. The “Enzyme activity pIC50” value in data set [2] came to 7.107. The melting point in data set [3] was more than 260 °C. Moreover, the solubility in data set [4] was more than 454 µM.

In the case of `Nc1ccccc1NC(=O)c1cnc(N2CCN(S(=O)(=O)c3ccc4ccccc4c3)CC2)nc1` [Compound 13], in data set [1] (A2780, 96 h), the IC50 was 0.442 µM. Moreover, the “Enzyme activity pIC50” value in data set [2] was less than 5. The same compound came in with a melting point in data set [3] of 238 °C. Further, the solubility in data set [4] is less than 75.8 µM.

`CN(C)Cc1sccc1-c1ccc(S(=O)(=O)N2CCN(c3ncc(C(=O)NO)cn3)CC2)cc1` [Co. No. 124] showed a melting point in data set [3] of 192 °C.

Turning to `CN(CCO)Cc1sccc1-c1ccc(S(=O)(=O)N2CCN(c3ncc(C(=O)NO)cn3)CC2)cc1` [Compound 151], the IC50 in data set [1] (A2780, 96 h) is 0.137 µM. Also, in data set [2], the “Enzyme activity pIC50” value was found to be 8.152. In addition, the solubility in data set [4] was more than 454 µM.

As for `O=C(NO)c1ccc(N2CCN(S(=O)(=O)c3cccc4cccnc34)CC2)cc1` [Compound 71], in data set [1] (A2780, 96 h), the IC50 was 2.47 µM. For the same compound, the “Enzyme activity pIC50” value in data set [2] was 6.449. Moreover, the solubility in data set [4] is more than 454 µM.

For `Cc1noc(C)c1-c1ccc(S(=O)(=O)N2CCN(c3ncc(C(=O)NO)cn3)CC2)cc1` [Compound 112], the IC50 in data set [1] (A2780, 96 h) is 0.33 µM. The “Enzyme activity pIC50” value in data set [2] was 7.54. The solubility in data set [4] is more than 454 µM.

Take `O=C(NO)c1cnc(N2CCN(S(=O)(=O)c3ccc4ccccc4c3)CC2)nc1` [Compound 6]: in data set [1] (96 h), the IC50 is 0.0461 µM. Also, the solubility in data set [4] lay in the range of 75.8 to 454 µM (≈ 31.3 to 188 µg/mL). For the same compound, the “antitumoural effect (tumour weight on day 32)” value in data set [5] is “strong antitumoural effect at all doses”.

For the compound `CN(C)Cc1cccc(-c2ccc(S(=O)(=O)N3CCN(c4ncc(C(=O)NO)cn4)CC3)cc2)c1` [Compound 168], in data set [1] (A2780, 96 h), the IC50 is 0.0638 µM. Also, the “Enzyme activity pIC50” value in data set [2] is on record as 8.766. Further, the solubility in data set [4] is more than 454 µM.

On to `O=C(NO)c1ccc(N2CCN(S(=O)(=O)c3ccc4ccccc4c3)CC2)cc1C(F)(F)F` [Compound 11], for which, in data set [1] (A2780, 96 h), the IC50 was 1.01 µM. Further, the “Enzyme activity pIC50” value in data set [2] is on record as less than 5. The melting point in data set [3] turned out to be 196 °C.
